Reference: ChEMBL document CHEMBL4033767, “Structure-Guided Strategy for the Development of Potent Bivalent ERK Inhibitors” (ACS Med Chem Lett, 2017)
pIC50, pKd: −log10 of the molar value. Blank lines part the entries; values can stand above or below the molecule they belong to. Residues, ends and D or L forms follow the SMILES beside them. *: point of attachment. X1 = Nc1nn(CC(=O)*)c2nnc(-c3c(-c4ccccc4)nn4ccccc34)cc12; PEG4 = NCCOCCOCCOCCOCCC(=O)O

Assays:
[1] = target: T1, Mitogen-activated protein kinase 1 (Homo sapiens, UniProt P28482); test: Inhibition of phosphorylated ERK2 (unknown origin) using myelin basic protein as substrate after 2 hrs in presence of ATP by ADP-glo assay
[2] = target: T1, Mitogen-activated protein kinase 1; test: Binding affinity to non-phosphorylated full length N-terminal His6-tagged/SUMO-fused ERK2 (1 to 360 residues) (unknown origin) by isothermal titration method
[3] = target: Mitogen-activated protein kinase 9 (Homo sapiens) (UniProt P45984); test: Inhibition of full length wild type human JNK2 (M1 to Q382 residues) expressed in mammalian expression system assessed as residual activity at 2 uM by KINOMEscan assay
[4] = target: Mitogen-activated protein kinase 11 (Homo sapiens) (UniProt Q15759); test: Inhibition of full length wild type human p38beta (M1 to Q364 residues) expressed in bacterial expression system assessed as residual activity at 2 uM by KINOMEscan assay
[5] = target: Mitogen-activated protein kinase 8 (Homo sapiens) (UniProt P45983); test: Inhibition of full length wild type human JNK1 (M1 to Q384 residues) expressed in mammalian expression system assessed as residual activity at 2 uM by KINOMEscan assay
[6] = target: Mitogen-activated protein kinase 10 (Homo sapiens) (UniProt P53779); test: Inhibition of full length wild type human JNK3 (M1 to Q382 residues) expressed in mammalian expression system assessed as residual activity at 2 uM by KINOMEscan assay
[7] = target: Glycogen synthase kinase-3 beta (Homo sapiens, UniProt P49841); test: Binding affinity to full length wild type human GSK3beta (M1 to T433 residues) expressed in mammalian expression system by KINOMEscan assay
[8] = target: Mitogen-activated protein kinase 3 (Homo sapiens) (UniProt P27361); test: Inhibition of full length wild type human ERK1 (M1 to P379 residues) expressed in bacterial expression system assessed as residual activity at 2 uM by KINOMEscan assay
[9] = target: Mitogen-activated protein kinase 14 (Homo sapiens) (UniProt Q16539); test: Inhibition of full length wild type human p38alpha (M1 to S360 residues) expressed in bacterial expression system assessed as residual activity at 2 uM by KINOMEscan assay
Homo sapiens = organism: Homo sapiens; test: Selectivity ratio of compound affinity for C-terminal FLAG-tagged human ERK2 to C-terminal FLAG-tagged human p38 alpha

T1 sequence (P28482 whole entry, the tested form may be a part): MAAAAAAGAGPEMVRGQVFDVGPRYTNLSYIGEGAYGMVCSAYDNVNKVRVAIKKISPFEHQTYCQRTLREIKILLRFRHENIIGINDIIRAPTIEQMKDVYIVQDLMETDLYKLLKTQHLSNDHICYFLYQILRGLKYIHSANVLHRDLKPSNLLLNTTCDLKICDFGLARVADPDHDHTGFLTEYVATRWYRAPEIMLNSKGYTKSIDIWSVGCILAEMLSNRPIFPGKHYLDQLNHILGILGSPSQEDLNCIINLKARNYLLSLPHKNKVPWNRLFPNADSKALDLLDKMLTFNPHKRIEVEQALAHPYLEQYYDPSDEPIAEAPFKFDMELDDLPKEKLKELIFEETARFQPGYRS
Sequence of Mitogen-activated protein kinase 10 (Homo sapiens) (P53779 whole entry, the tested form may be a part): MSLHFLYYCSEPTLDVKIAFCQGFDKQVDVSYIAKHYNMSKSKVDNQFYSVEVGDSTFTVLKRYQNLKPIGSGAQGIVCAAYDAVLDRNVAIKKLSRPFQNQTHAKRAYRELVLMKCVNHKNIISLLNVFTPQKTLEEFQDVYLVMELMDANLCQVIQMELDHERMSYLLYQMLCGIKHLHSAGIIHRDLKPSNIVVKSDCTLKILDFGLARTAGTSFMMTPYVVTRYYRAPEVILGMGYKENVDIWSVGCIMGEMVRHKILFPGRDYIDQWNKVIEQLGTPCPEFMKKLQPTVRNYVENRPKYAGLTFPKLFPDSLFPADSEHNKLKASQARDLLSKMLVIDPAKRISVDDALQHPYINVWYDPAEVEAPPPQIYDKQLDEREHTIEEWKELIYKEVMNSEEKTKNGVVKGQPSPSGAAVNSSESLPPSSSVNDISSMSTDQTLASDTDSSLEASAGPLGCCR
Sequence of Mitogen-activated protein kinase 11 (Homo sapiens) (Q15759 whole entry, the tested form may be a part): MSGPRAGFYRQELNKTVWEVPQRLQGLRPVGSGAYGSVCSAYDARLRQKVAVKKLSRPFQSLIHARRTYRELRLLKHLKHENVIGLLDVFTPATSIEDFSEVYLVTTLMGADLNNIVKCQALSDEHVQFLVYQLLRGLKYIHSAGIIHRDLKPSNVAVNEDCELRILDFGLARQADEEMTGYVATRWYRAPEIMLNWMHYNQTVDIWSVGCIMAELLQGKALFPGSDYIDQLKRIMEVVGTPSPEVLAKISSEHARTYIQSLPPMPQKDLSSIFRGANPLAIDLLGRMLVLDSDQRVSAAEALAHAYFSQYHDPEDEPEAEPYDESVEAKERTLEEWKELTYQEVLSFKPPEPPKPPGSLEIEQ
Sequence of Mitogen-activated protein kinase 8 (Homo sapiens) (P45983 whole entry, the tested form may be a part): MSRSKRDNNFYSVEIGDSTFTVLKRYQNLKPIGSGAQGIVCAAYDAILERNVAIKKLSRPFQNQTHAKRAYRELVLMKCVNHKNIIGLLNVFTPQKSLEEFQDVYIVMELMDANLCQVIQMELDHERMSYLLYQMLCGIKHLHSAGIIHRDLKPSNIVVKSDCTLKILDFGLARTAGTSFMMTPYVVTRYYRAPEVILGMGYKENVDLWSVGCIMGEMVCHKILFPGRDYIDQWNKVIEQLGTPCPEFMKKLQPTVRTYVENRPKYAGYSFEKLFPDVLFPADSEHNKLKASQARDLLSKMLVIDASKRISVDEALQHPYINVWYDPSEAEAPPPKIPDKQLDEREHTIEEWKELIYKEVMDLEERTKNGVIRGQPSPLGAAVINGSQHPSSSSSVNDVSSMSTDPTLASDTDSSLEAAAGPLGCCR
Sequence of Mitogen-activated protein kinase 3 (Homo sapiens) (P27361 whole entry, the tested form may be a part): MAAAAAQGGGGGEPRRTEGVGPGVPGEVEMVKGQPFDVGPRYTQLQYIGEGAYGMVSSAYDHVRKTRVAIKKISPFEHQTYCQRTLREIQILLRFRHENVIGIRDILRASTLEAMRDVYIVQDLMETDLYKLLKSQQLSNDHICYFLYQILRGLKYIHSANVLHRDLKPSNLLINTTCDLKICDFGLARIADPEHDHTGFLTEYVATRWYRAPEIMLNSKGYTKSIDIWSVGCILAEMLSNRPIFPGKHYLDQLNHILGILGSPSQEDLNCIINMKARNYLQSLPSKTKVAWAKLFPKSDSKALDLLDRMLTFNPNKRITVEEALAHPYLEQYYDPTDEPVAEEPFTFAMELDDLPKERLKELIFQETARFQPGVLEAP
Sequence of Glycogen synthase kinase-3 beta (P49841 whole entry, the tested form may be a part): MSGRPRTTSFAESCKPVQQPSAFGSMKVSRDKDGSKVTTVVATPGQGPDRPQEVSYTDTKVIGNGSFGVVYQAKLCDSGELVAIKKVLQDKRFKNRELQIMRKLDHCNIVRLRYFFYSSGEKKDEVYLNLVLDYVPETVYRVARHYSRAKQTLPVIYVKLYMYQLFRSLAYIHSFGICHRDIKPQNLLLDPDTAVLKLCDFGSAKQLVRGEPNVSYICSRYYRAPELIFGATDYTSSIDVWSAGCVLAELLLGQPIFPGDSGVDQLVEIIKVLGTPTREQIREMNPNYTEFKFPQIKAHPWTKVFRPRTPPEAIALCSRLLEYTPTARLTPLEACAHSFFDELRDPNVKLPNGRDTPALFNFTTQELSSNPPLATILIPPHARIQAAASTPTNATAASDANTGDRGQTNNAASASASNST
Sequence of Mitogen-activated protein kinase 14 (Homo sapiens) (Q16539 whole entry, the tested form may be a part): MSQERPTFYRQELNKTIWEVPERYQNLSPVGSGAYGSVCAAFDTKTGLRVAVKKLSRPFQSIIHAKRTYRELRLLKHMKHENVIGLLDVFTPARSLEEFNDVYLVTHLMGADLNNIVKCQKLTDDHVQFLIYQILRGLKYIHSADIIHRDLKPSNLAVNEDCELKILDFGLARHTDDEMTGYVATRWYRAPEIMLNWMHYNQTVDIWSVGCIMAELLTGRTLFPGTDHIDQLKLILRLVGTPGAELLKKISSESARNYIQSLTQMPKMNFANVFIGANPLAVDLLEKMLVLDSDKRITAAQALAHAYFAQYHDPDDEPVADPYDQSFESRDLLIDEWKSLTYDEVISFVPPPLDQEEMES
Sequence of Mitogen-activated protein kinase 9 (Homo sapiens) (P45984 whole entry, looked up, the tested form may be a part): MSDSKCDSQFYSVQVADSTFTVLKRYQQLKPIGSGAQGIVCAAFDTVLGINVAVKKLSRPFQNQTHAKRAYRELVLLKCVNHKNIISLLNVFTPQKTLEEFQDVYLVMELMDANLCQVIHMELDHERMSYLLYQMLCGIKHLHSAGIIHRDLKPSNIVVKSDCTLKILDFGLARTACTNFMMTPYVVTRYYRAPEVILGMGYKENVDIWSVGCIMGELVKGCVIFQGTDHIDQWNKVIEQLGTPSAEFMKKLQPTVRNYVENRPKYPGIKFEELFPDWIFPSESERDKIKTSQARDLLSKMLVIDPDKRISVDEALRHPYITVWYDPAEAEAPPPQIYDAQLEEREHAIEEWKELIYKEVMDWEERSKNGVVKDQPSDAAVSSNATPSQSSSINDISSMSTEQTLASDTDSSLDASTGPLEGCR

Molecule: CC[C@H](C)[C@H](NC(=O)[C@H](CO)NC(=O)[C@H](CO)NC(=O)[C@H](CCC(=O)O)NC(=O)[C@@H](NC(=O)[C@@H]1CCCN1C(=O)[C@H](CCCCN)NC(=O)[C@H](CC(C)C)NC(=O)[C@H](CCC(N)=O)NC(=O)[C@H](C)NC(=O)[C@@H](NC(=O)CCOCCOCCOCCOCCNC(=O)Cn1nc(N)c2cc(-c3c(-c4ccccc4)nn4ccccc34)nnc21)[C@@H](C)O)[C@@H](C)CC)C(=O)N[C@@H](CC(C)C)C(=O)N[C@@H](C)C(=O)N[C@@H](CCC(N)=O)C(=O)N[C@@H](CCCNC(=N)N)C(=O)N[C@@H](CCCNC(=N)N)C(=O)N[C@H](C(=O)N[C@@H](CCCNC(=N)N)C(=O)N[C@@H](CCCCN)C(=O)N[C@@H](CCCNC(=N)N)C(=O)N[C@@H](CCCCN)C(=O)N[C@@H](CCCCN)C(=O)N[C@@H](CCCNC(=N)N)C(=O)N[C@@H](CCCNC(=N)N)C(=O)N[C@@H](CCC(N)=O)C(=O)N[C@@H](CCCNC(=N)N)C(=O)N[C@@H](CCCNC(=N)N)C(=O)N[C@@H](CCCNC(=N)N)C(=O)O)C(C)C ({X1-PEG4}-TAQLKPIESSILAQRRVRKRKKRRQRRR-OH)
pIC50 [1]: 7.85

Molecule: H-PQLKPIESSILAQRRVRKLPSTTL-OH
Selectivity ratio (Homo sapiens): 20

Molecule: Nc1nn(CC(=O)O)c2nnc(-c3c(-c4ccccc4)nn4ccccc34)cc12
pIC50 [1]: 4.91

Molecule: CC[C@H](C)[C@H](NC(=O)[C@H](CCC(=O)O)NC(=O)CCOCCOCCOCCOCCNC(=O)Cn1nc(N)c2cc(-c3c(-c4ccccc4)nn4ccccc34)nnc21)C(=O)N[C@H](C(=O)N[C@@H](CCCCN)C(=O)N[C@@H](CC(C)C)C(=O)N[C@@H](C)C(=O)N1CCC[C@H]1C(=O)N1CCC[C@H]1C(=O)N1CCC[C@H]1C(=O)N[C@@H](CCCCN)C(=O)N[C@@H](CCCCN)C(=O)N[C@@H](C)C(=O)O)[C@@H](C)CC ({X1-PEG4}-EIIKLAPPPKKA-OH)
pIC50 [1]: 6.15

The next lines start with the values.

pKd [2]: 4.74
Molecule: H-EIIKLAPPPKKA-OH

Activity [3]: 0.1%
Activity [4]: 11%
Activity [5]: 0.1%
Activity [6]: 0.1%
pKd [7]: < 5.60
Activity [8]: 0.15%
Activity [9]: 0.25%
Molecule: CC[C@H](C)[C@H](NC(=O)[C@H](CO)NC(=O)[C@H](CO)NC(=O)[C@H](CCC(=O)O)NC(=O)[C@@H](NC(=O)[C@@H]1CCCN1C(=O)[C@H](CCCCN)NC(=O)[C@H](CC(C)C)NC(=O)[C@H](CCC(N)=O)NC(=O)[C@H](C)NC(=O)[C@@H](NC(=O)CNC(=O)C(N)CCCCn1cc(CCCCNC(=O)CCCCCn2nc(N)c3cc(-c4c(-c5ccccc5)nn5ccccc45)nnc32)nn1)[C@@H](C)O)[C@@H](C)CC)C(=O)N[C@@H](CC(C)C)C(=O)N[C@@H](C)C(=O)N[C@@H](CCC(N)=O)C(=O)N[C@@H](CCCNC(=N)N)C(=O)N[C@@H](CCCNC(=N)N)C(=O)N[C@H](C(=O)N[C@@H](CCCNC(=N)N)C(=O)N[C@@H](CCCCN)C(=O)O)C(C)C (some centres not stated)
